From patent US12692233B2, “Anthelmintic compounds comprising a pyridine structure” (Intervet Inc., priority 2020, dated 2026)
pEC50: −log10 of the molar value.

Legend:
Dirofilaria immitis = test: In vitro assay Dirofilaria immitis L1 (microfilaria), motility; format: cell-based; conditions: 72 h, 3 days incubation, reduction in motility vs DMSO
Method: (§1) Approximately 500 D. immitis microfilaria were added to a microtiter plate containing a nutrient medium and the test compound in DMSO at varying concentrations. After incubation for 3 days, activity was evaluated as reduction in motility as compared to DMSO as negative control. Compounds were tested in duplicates. Based on the concentration response curves EC50 values were calculated.

Ascaridia galli = test: In vitro assay Ascaridia galli larval stage 3; format: cell-based; conditions: larval stage 3, 20 larvae per well, microscopic examination, read-out: MEC (minimum effective concentration) against Ascaridia galli L3
Description: (§2) […] galli (intestinal roundworm of chicken), larval stage 3 (“L3”); and Oesophagostumum dentatum (nodular worm of swine), larval stages 3 and 4 (respectively “L3” and “L4”) where suspended in a nutrient medium and distributed to 96 well plates with 20 larvae per well. The wells were spiked DMSO solutions of the compounds with declining concentration.

C. elegans Slo-1a = C. elegans Slo-1a (Caenorhabditis elegans, UniProt Q95V25); test: Agonistic activity at C. elegans Slo-1a, FLIPR membrane potential in CHO K1 cells; conditions: EC50 agonistic activity at C. elegans Slo-1a, CHO K1 cells stably transfected with slo-1a, membrane potential dye
Method: A CHO K1 cell line stably transfected with the Caenorhabditis elegans slo-1a (accession no Y51A2D.19a) was established. Cells were seeded in microtiter plates (black 384-well MTP, clear bottom) in a concentration of 10,000 cells/well in 25 μl medium and cultured for 20 to 24 hours at 37° C. and 5% CO2. After incubation, 25 μl of FMP-dye Blue-Tyrode's was added to each well and incubated at room temperature for 30 min. Ten minutes after addition of 12.5 μl compound solution, the plates are transferred to the FLIPR for measurement.
For the membrane potential measurements, the plates were placed in the FLIPR Penta (Molecular Devices). The baseline measurement of the fluorescence was stared for 20 sec (Exc. 510-545 nm, Emm. 565-625 nm). Potential channel opening measurement was started by addition of 25 μl of KCl-Tyrode (final assay concentration of the KCl-Tyrode: 70 mM KCl, 2 mM CaCl2, 1 mM MgCl2, 0.8 mM NaH2PO4, 5 mM Glucose, 28 mM Hepes, pH 7.4, including the voltage sensitive dye). The complete measurement takes 150 s.
EC50 values were determined in triplicate utilizing compound dilution series. The data were determined at least in two independent tests. The data were proceeded by using the ActivityBase XE Runner software (IDBS) for curve fitting and calculation of the half-maximal effective concentration.

[1] = target: T1, human Maxi K channel (BK channel) (Homo sapiens, UniProt Q12791); test: Agonistic activity at the human Maxi K channel (BK channel), FLIPR membrane potential in CHO K1 cells; format: cell-based; conditions: CHO K1 cells stably transfected with KCNMA1 and beta1 (KCNMB1) subunits, membrane potential dye
T1 construct: expressed in transfected cells; host or cells: CHO K1
Description: A CHO K1 cell line was stably transfected with the KCNMA1 (KCa1.1, U11058) and beta1 (KCNMB1) subunits of the human Maxi K channel (Ponte et al, Molecular Pharmacology 2012, 81(4), 567-577).
The complete measurement takes 150 s.

Acanthocheilonema viteae = test: In vitro assay Acanthocheilonema viteae L1 (microfilaria), motility; format: cell-based; conditions: 72 h, 3 days incubation, reduction in motility vs DMSO
Method: as §1, with “A. viteae” for “D. immitis”

Oesophagostumum dentatum [2] = test: In vitro assay Oesophagostumum dentatum larval stage 3; format: cell-based; conditions: larval stage 3, 20 larvae per well, microscopic examination; read-out: MEC (minimum effective concentration) against Oesophagostumum dentatum L3
Description: as §2

Oesophagostumum dentatum [3] = test: In vitro assay Oesophagostumum dentatum larval stage 4; format: cell-based; conditions: larval stage 4, 20 larvae per well, microscopic examination; read-out: MEC (minimum effective concentration) against Oesophagostumum dentatum L4
Description: as §2

T1 sequence (Q12791 1-1178 isoform Q12791-5): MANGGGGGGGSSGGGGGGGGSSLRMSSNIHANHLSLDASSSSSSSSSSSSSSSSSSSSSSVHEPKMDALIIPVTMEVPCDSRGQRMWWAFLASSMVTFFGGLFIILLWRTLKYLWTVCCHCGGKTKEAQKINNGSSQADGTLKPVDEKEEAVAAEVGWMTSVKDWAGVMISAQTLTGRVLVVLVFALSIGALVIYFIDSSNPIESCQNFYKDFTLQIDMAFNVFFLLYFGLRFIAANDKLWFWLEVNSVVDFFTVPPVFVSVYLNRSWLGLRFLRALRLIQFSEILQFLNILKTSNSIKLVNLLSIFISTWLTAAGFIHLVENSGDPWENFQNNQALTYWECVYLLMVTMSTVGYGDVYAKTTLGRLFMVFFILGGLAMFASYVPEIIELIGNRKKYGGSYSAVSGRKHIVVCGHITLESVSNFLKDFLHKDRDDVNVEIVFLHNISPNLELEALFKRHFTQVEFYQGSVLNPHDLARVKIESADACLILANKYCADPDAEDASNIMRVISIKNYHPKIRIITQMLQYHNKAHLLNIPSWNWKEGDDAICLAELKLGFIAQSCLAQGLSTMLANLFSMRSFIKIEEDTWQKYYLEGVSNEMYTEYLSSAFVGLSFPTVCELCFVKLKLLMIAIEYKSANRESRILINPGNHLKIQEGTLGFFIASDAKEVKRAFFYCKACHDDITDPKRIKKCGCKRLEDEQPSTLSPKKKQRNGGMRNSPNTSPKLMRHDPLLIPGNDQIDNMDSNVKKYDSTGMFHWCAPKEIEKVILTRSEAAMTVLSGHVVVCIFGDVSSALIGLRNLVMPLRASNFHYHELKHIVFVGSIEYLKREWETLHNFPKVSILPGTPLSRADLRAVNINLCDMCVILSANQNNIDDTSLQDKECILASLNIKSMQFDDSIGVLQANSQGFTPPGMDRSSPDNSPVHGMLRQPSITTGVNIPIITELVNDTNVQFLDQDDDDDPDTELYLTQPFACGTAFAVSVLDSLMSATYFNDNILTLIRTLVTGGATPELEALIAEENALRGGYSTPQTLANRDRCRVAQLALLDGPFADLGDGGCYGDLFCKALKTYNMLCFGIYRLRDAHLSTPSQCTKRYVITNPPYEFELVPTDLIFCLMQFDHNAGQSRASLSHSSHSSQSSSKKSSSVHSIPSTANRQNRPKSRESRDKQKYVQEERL
T1 sequence (Q16558 whole entry partner): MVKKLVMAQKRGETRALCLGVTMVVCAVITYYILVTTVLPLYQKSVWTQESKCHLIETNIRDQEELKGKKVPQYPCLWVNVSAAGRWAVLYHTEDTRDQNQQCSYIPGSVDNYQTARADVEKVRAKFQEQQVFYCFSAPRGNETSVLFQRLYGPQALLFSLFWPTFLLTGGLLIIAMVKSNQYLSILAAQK
Chain of C. elegans Slo-1a (Q95V25 whole entry): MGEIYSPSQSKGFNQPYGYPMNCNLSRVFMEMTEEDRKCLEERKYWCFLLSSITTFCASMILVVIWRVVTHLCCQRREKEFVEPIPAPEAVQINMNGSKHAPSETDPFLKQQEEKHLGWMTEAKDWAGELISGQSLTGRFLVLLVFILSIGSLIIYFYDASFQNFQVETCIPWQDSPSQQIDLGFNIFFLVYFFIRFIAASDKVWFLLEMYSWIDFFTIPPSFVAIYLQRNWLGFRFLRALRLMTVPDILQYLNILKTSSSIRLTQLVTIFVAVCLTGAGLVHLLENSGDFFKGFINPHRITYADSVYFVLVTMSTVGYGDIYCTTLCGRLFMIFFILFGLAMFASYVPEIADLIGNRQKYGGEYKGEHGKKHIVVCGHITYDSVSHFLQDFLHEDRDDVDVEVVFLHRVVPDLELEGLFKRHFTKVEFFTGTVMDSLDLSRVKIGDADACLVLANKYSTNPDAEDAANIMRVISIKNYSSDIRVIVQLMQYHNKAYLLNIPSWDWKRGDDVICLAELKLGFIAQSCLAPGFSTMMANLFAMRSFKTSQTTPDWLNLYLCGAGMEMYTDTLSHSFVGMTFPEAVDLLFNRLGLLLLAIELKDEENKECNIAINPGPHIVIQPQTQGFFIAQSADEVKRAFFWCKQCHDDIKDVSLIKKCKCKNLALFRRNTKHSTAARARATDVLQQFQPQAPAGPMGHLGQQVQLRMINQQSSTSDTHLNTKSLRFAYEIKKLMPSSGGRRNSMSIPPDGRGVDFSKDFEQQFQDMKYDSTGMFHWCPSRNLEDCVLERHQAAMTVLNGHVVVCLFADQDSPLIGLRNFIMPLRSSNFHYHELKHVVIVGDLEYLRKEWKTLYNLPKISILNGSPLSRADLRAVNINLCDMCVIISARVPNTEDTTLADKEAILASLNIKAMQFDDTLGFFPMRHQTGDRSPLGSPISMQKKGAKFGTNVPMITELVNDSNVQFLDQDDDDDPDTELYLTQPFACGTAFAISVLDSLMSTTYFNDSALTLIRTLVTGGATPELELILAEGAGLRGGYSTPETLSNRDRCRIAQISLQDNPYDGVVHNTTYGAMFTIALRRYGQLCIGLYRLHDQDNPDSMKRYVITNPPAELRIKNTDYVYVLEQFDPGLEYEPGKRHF

Row | Structure (SMILES) | pEC50 (Dirofilaria immitis) | minimal effective concentration (Ascaridia galli) | pEC50 (C. elegans Slo-1a) | pEC50 [1] | pEC50 (Acanthocheilonema viteae) | minimal effective concentration (Oesophagostumum dentatum [2]) | minimal effective concentration (Oesophagostumum dentatum [3])
1 | O=C(N[C@H]1CCc2ccccc21)c1cnc(Sc2cccc(Cl)c2Cl)cc1N1CCOCC1 [Compound 23] | > 5.00 | ≤ 50 µM | > 6.00 | < 4.52 |  |  | 
2 | CCOc1cc(Sc2cc(Cl)cc(Cl)c2)ncc1C(=O)N[C@H]1CCc2ccccc21 [Compound 97] |  |  |  | < 4.52 | > 5.00 |  | 
3 | CN(C)c1cc(Cc2cc(Cl)cc(Cl)c2)ncc1C(=O)N[C@H]1CCCc2ccccc21 [Compound 111] |  |  |  | < 4.52 |  | ≤ 50 µM | ≤ 50 µM
4 | CN(C)c1cc(Nc2cc(Cl)cc(Cl)c2)ncc1C(=O)N[C@H]1CCOc2ccccc21 [Compound 115] |  | ≤ 50 µM | > 5.00 | < 4.52 |  | ≤ 50 µM | 
5 | CN(C)c1cc(Oc2cc(Cl)cc(Cl)c2)ncc1C(=O)N[C@@H]1CCOc2ccccc21 [Compound 29] | > 5.00 | ≤ 50 µM |  | < 4.52 |  |  | ≤ 50 µM
6 | CCSc1cc(Sc2cc(Cl)cc(Cl)c2)ncc1C(=O)N[C@H]1CCOc2ccccc21 [Compound 74] |  |  |  | < 4.52 |  | ≤ 50 µM | ≤ 50 µM
7 | CCOc1cc(Oc2cc(Cl)cc(Cl)c2)ncc1C(=O)N[C@H]1CCc2ccccc21 [Compound 90] |  | ≤ 50 µM |  | < 4.52 | > 5.00 | ≤ 50 µM | 
8 | O=C(N[C@H]1CCc2ccccc21)c1cnc(Nc2cc(Cl)cc(Cl)c2)cc1N1CCOCC1 [Compound 109] |  | ≤ 50 µM | > 5.00 | 4.52 to 5.00 |  | ≤ 50 µM | 
9 | COc1cc(Sc2cccc(Cl)c2Cl)ncc1C(=O)N[C@H]1CCc2ccccc21 [Compound 67] |  | ≤ 50 µM | > 5.00 | < 4.52 | > 5.00 |  | ≤ 50 µM
10 | COc1cc(Oc2cc(Cl)cc(Cl)c2)ncc1C(=O)N[C@H]1CCOc2ccccc21 [Compound 86] |  |  |  | < 4.52 |  | ≤ 50 µM | 
11 | CN(C)c1cc(Sc2cc(Cl)cc(Cl)c2)ncc1C(=O)Nc1cccc2ccccc12 [Compound 16] |  | ≤ 50 µM |  | < 4.52 |  | ≤ 50 µM | 
12 | O=C(Nc1csc2ccccc12)c1cnc(Oc2cccc(Cl)c2Cl)cc1N1CCOCC1 [Compound 46] | > 5.00 |  |  | < 4.52 | > 5.00 |  | 
13 | COc1cc(Sc2cccc(Cl)c2Cl)ncc1C(=O)N[C@H]1CCOc2ccccc21 [Compound 68] |  |  | > 5.00 | < 4.52 |  |  | ≤ 50 µM
14 | CN(C)c1cc([S+]([O-])c2cc(Cl)cc(Cl)c2)ncc1C(=O)N[C@H]1CCOc2ccccc21 (some centres unmarked) [Compound 103] | > 5.00 | ≤ 50 µM | > 5.00 | < 4.52 |  | ≤ 50 µM | ≤ 50 µM
15 | CN(C)c1cc(Nc2cc(Cl)cc(Cl)c2)ncc1C(=O)N[C@H]1CCc2ccccc21 [Compound 116] |  | ≤ 50 µM | > 5.00 | < 4.52 |  | ≤ 50 µM | ≤ 50 µM
16 | CN(C)c1cc([S+]([O-])c2cc(Cl)cc(Cl)c2)ncc1C(=O)N[C@H]1CCCc2ccccc21 (some centres unmarked) [Compound 101] | > 5.00 |  |  | < 4.52 |  | ≤ 50 µM | 
17 | O=C(N[C@@H]1CCOc2ccccc21)c1cnc(Oc2cc(Cl)cc(Cl)c2)cc1N1CCOCC1 [Compound 24] | > 5.00 |  |  | < 4.52 |  | ≤ 50 µM | ≤ 50 µM
18 | COc1cc(Oc2cccc(Cl)c2Cl)ncc1C(=O)N[C@H]1CCOc2ccccc21 [Compound 95] | > 5.00 | ≤ 50 µM |  | < 4.52 | > 5.00 |  | 
19 | CCSc1cc(Sc2cccc(Cl)c2Cl)ncc1C(=O)N[C@H]1CCCc2ccccc21 [Compound 62] |  | ≤ 50 µM |  | < 4.52 |  | ≤ 50 µM | 
20 | O=C(N[C@H]1CCOc2ccccc21)c1cnc(Cc2cc(Cl)cc(Cl)c2)cc1N1CCOCC1 [Compound 112] |  | ≤ 50 µM | > 5.00 | < 4.52 |  | ≤ 50 µM | 

Row | Structure (SMILES) | pEC50 (Dirofilaria immitis) | minimal effective concentration (Ascaridia galli) | pEC50 (C. elegans Slo-1a) | pEC50 [1] | pEC50 (Acanthocheilonema viteae) | minimal effective concentration (Oesophagostumum dentatum [2]) | minimal effective concentration (Oesophagostumum dentatum [3])
21 | O=C(Nc1csc2ccccc12)c1cnc(Sc2cccc(Cl)c2Cl)cc1N1CCOCC1 [Compound 48] |  | ≤ 50 µM |  | < 4.52 |  |  | ≤ 50 µM
22 | CN(C)c1cc(S(=O)(=O)c2cc(Cl)cc(Cl)c2)ncc1C(=O)N[C@H]1CCCc2ccccc21 [Compound 102, (S)-6-((3,5-dichlorophenyl)sulfonyl)-4-(dimethylamino)-N-(1,2,3,4-tetrahydronaphthalen-1-yl)nicotinamide] | > 5.00 |  |  | < 4.52 |  |  | ≤ 50 µM
23 | COc1cc(Oc2cc(Cl)cc(Cl)c2)ncc1C(=O)N[C@H]1CCCc2ccccc21 [Compound 85] | > 5.00 | ≤ 50 µM |  | < 4.52 |  | ≤ 50 µM | 
24 | CN(C)c1cc(Oc2cc(Cl)cc(Cl)c2)ncc1C(=O)Nc1cccc2ccccc12 [Compound 32] | > 5.00 |  |  | < 4.52 |  | ≤ 50 µM | 
25 | O=C(N[C@H]1CCc2ccccc21)c1cnc(Cc2cc(Cl)cc(Cl)c2)cc1N1CCOCC1 [Compound 117] |  | ≤ 50 µM | > 5.00 |  |  | ≤ 50 µM | ≤ 50 µM
26 | CN(C)c1cc(Cc2cc(Cl)cc(Cl)c2)ncc1C(=O)N[C@H]1CCc2ccccc21 [Compound 110] |  |  |  | < 4.52 |  | ≤ 50 µM | ≤ 50 µM
27 | CSc1cc(Sc2cccc(Cl)c2Cl)ncc1C(=O)N[C@H]1CCc2ccccc21 [Compound 53] |  |  | > 5.00 | < 4.52 |  |  | ≤ 50 µM
28 | COc1cc(Sc2cc(Cl)cc(Cl)c2)ncc1C(=O)N[C@H]1CCOc2ccccc21 [Compound 83] |  | ≤ 50 µM | > 5.00 | < 4.52 |  | ≤ 50 µM | 
29 | CSc1cc(Oc2cc(Cl)cc(Cl)c2)ncc1C(=O)N[C@@H]1CCOc2ccccc21 [Compound 60] |  |  |  | < 4.52 |  | ≤ 50 µM | 
30 | O=C(N[C@@H]1CCOc2ccccc21)c1cnc(Sc2cccc(Cl)c2Cl)cc1N1CCOCC1 [Compound 50] | > 5.00 |  |  | < 4.52 |  |  | 
31 | CCOc1cc(Oc2cccc(Cl)c2Cl)ncc1C(=O)N[C@H]1CCOc2ccccc21 [Compound 92] |  |  |  | < 4.52 |  |  | ≤ 50 µM
32 | O=C(Nc1cccc2ccccc12)c1cnc(Oc2cccc(Cl)c2Cl)cc1N1CCOCC1 [Compound 45] | > 5.00 |  |  | < 4.52 |  |  | 
33 | CSc1cc(Oc2cccc(Cl)c2Cl)ncc1C(=O)N[C@H]1CCOc2ccccc21 [Compound 57] |  | ≤ 50 µM |  | < 4.52 | > 5.00 |  | 
34 | O=C(N[C@H]1CCCc2ccccc21)c1cnc(Cc2cc(Cl)cc(Cl)c2)cc1N1CCOCC1 [Compound 113] |  |  | > 5.00 | < 4.52 |  | ≤ 50 µM | 
35 | COc1cc(Oc2cccc(Cl)c2Cl)ncc1C(=O)N[C@H]1CCCc2ccccc21 [Compound 96] | > 5.00 | ≤ 50 µM |  | < 4.52 |  |  | 
36 | COc1cc(Sc2cc(Cl)cc(Cl)c2)ncc1C(=O)N[C@H]1CCc2ccccc21 [Compound 84] |  |  | > 5.00 | < 4.52 | > 5.00 | ≤ 50 µM | ≤ 50 µM
37 | CN(C)c1cc(S(=O)(=O)c2cc(Cl)cc(Cl)c2)ncc1C(=O)N[C@H]1CCOc2ccccc21 [Compound 100] |  | ≤ 50 µM | > 5.00 | < 4.52 |  | ≤ 50 µM | 
38 | COc1cc(Sc2cccc(Cl)c2Cl)ncc1C(=O)N[C@H]1CCCc2ccccc21 [Compound 66] |  |  | > 5.00 | < 4.52 |  | ≤ 50 µM | ≤ 50 µM
39 | CN(C)c1cc(Oc2cccc(Cl)c2Cl)ncc1C(=O)Nc1csc2ccccc12 [Compound 37] |  | ≤ 50 µM |  | < 4.52 | > 5.00 |  | ≤ 50 µM
40 | COc1cc(Oc2cccc(Cl)c2Cl)ncc1C(=O)N[C@H]1CCc2ccccc21 [Compound 94] | > 5.00 |  |  | < 4.52 | > 5.00 |  | 
